Data on four molecules can be found in US20080311126A1, “Antisense Oligonucleotides Directed to Ribonucleotide Reducatase R2 and Uses Thereof in Combination Therapies for the Treatment of Cancer” (Genesense Technologies, Inc, priority 2004, published 2008).

In assay [1] the test system is SK-OV-3 human ovary adenocarcinoma cells. Kind of assay: SK-OV-3 ovary tumour xenograft in CD-1 nude mice. To be noted: SK-OV-3 (ovary); Mouse CD-1. In kind it is in vivo. The protocol: SK-OV-3 human ovary adenocarcinoma cells (1×10^7 cells in 100 μl of PBS) were subcutaneously injected into the right flank of 6-7 weeks old female CD-1 nude mice. After the size of tumour reached an approximate volume of 100 mm^3, 6 days post tumour cell injection, SEQ ID NO:1 was administered by bolus infusion into the tail vein every other day at 10 mg/kg 17 times. Control animals received saline alone for the same period. Antitumour effect of SEQ ID NO: 1 was further compared to that of taxol or cisplatin alone or in combination. Taxol was administered intravenously once a week for first three weeks and intraperitoneally once a week for next two weeks at a dose of 10 mg/kg. Cisplatin was administered intravenously once a week for first three weeks and intraperitoneally once a week for next two weeks at a dose of 4 mg/kg. All treatments were stopped at day 40. Antitumour activities were estimated by the inhibition of tumour volume, which was measured with caliper. Each point represents mean tumour volume calculated from 9 animals per experimental group.

Assay [2] deals with MDA-MB435-To.1 human Taxol-resistant breast adenocarcinoma cells. In words: MDA-MB435-To.1 Taxol-resistant breast adenocarcinoma, fat pad injection in SCID mice. In kind it is in vivo. On the set-up: Tumour weight as % of saline control: concentration or dose not given beside the values. To be noted: for Tumour weight as % of saline control: MDA-MB435-To.1 (breast), Taxol resistance. The protocol:
MDA-MB435-To.1 human Taxol-resistant breast adenocarcinoma cells (4×10^6 cells in […] of PBS) were injected into the fat pad (inside of right leg) of 6-7 weeks old female SCID mice. After the size of tumour reached an approximate volume of 100 mm^3, 20 days post tumour cell injection, SEQ ID NO:1 was administered by bolus infusion into the tail vein every other day at 10 mg/kg 15 times. Control animals received saline alone for the same period. Antitumour effect of SEQ ID NO:1 was further compared to that of Cisplatin or Taxol alone. Cisplatin was administered intravenously once a week for four weeks at a dose of 4 mg/kg. Taxol was administered intravenously once a week for four weeks at a dose of 20 mg/kg.
Antitumour activities were estimated by the inhibition of tumour volume, which was measured with caliper. Bach point represents mean tumour volume calculated from 9-10 animals per experimental group. […] As expected, treatment with Taxol during the same period was ineffective against Taxol-resistant tumour.
MDA-MB435-To.1 human Taxol-resistant breast adenocarcinoma cells (4×10^6 cells in 100 μl of PBS) were injected into the fat pad (inside of right leg) of 6-7 weeks old female CB-17 SCID mice. After the size of tumour reached an approximate volume of 100 mm^3, 17 days post tumour cell injection, SEQ ID NO:1 was administered by bolus infusion into the tail vein every other day at 10 mg/kg. Control animals received saline alone for the same period. Antitumour effect of SEQ ID NO:1 was compared to that of Cisplatin alone and in combination. Cisplatin was administered intravenously once a week for four weeks at a dose of 4 mg/kg. Antitumour activities were estimated by the inhibition of tumour volume, which was measured with caliper. Each point represents mean tumour volume calculated from 10 animals per experimental group. At the end of the study the animals were sacrificed and tumours weighed.

The subject of assay [3] is Hela S3 human cervix epitheloid carcinoma cells. In words: Hela S3 hydroxyurea resistant cervix carcinoma xenograft in SCID mice. To be noted: Hela S3 (cervix), hydroxyurea resistance; SCID. The format is in vivo. The protocol: Hela S3 human cervix epitheloid carcinoma cells (5×10^5 cells in 100 μl of PBS) were subcutaneously injected into the right flank of 6-7 weeks old female SCID mice. Hela S3 is a hydroxyurea resistant cell line. After the size of tumour reached an approximate volume of 100 mm^3, 3 days post tumour cell injection, SEQ ID NO:1 was administered by bolus infusion into the tail vein every other day at 10 mg/kg 6 times. Control animals received saline alone for the same period. Antitumour effect of SEQ ID NO:1 was further compared to that of Hydroxyurea or Cisplatin alone or in combination. Hydroxyurea was administered intraperitoneally every day at a dose of 250 mg/kg for 10 days. Cisplatin was administered intravenously once a week for three weeks at a dose of 4 mg/kg. Antitumour activities were estimated by the inhibition of tumour volume, which was measured with caliper. Each point represents mean tumour volume calculated from 10 animals per experimental group. […] As expected, treatment with Hydroxyurea during the same period was ineffective against Hydroxyurea-resistant tumour.

The test system of assay [4] is MDA-CDDP-S4 human Cisplatin-resistant breast adenocarcinoma cells. In words: MDA-CDDP-S4 Cisplatin-resistant breast adenocarcinoma, fat pad injection in SCID mice. To be noted: for Tumour weight as % of saline control: MDA-CDDP-S4 (breast), Cisplatin resistance, SCID. In kind it is in vivo. The protocol: MDA-CDDP-S4 human in vivo-selected Cisplatin-resistant breast adenocarcinoma cells (4×10^6 cells in 100 μl of PBS) were injected into the fat pad (inside of right leg) of 6-7 weeks old female SCID mice. After the size of tumour reached an approximate volume of 100 mm^3, 7 days post tumour cell injection, SEQ ID NO:1 was administered by bolus infusion into the tail vein every other day at 10 mg/kg 9 times. Control animals received saline alone for the same period. Antitumour effect of SEQ ID NO: 1 was further compared to that of Cisplatin or Taxol alone. Cisplatin was adminstered intravenously once a week for three weeks at a dose of 4 mg/kg. Taxol was administered intravenously once a week for three weeks at a dose of 10 mg/kg. Antitumour activities were estimated by the inhibition of tumour volume, which was measured with caliper. Each point represents mean tumour volume calculated from 10 animals per experimental group. […] As expected, treatment with Cisplatin during the same period was ineffective against Cisplatin-resistant tumour.
MDA-CDDP-S4 human in vivo-selected Cisplatin-resistant breast adenocarcinoma cells (4×10^6 cells in 100 μl of PBS) were injected into the fat pad (inside of right leg) of 6-7 weeks old female CB-17 SCID mice. After the size of tumour reached an approximate volume of 100 mm^3, 9 days post tumour cell injection, SEQ ID NO:1 was administered by bolus infusion into the tail vein every other day at 10 mg/kg. Control animals received saline alone for the same period. Antitumour effect of SEQ ID NO:1 was further compared to that of Taxol alone and in combination. Taxol was administered i.p. once a week at a dose of 10 mg/kg. Antitumour activities were estimated by the inhibition of tumour volume FIG. 22A), which was measured with calipers. Each point represents mean tumour volume calculated from 10 animals per experimental group. Animals were sacrificed and tumour weights taken at the end of the study (FIG. 22C). […] This study was repeated with similar results (FIG. 22B).

For assay [5], the system named is MDA-MB-231 human breast cancer cells. In words: MDA-MB-231 breast tumour xenograft in CD-1 nude mice. The format is in vivo. The settings on record: MDA-MB-231 (breast); Mouse CD-1. The protocol:
MDA-MB-231 human breast cancer cells (1×10^7 cells in 100 μl of PBS) were subcutaneously injected into the right flank of 6-7 weeks old female CD-1 nude mice. After the size of tumour reached an approximate volume of 100 mm^3, 5 days post tumour cell injection, SEQ ID NO:1, or the scrambled control oligonucleotide (SEQ ID NO:3) were administered by bolus infusion into the tail vein every other day at 10 mg/kg. Control animals received saline alone for the same period. Antitumour effect of SEQ ID NO:1 was further compared to that of taxol or doxorubicin alone or in combination. Taxol was administered intravenously once a week at a dose of 10 mg/kg for three (FIG. 17A) or four weeks (FIG. 17C). Doxorubicin was administered intravenously once a week at a dose of 5 mg/kg for first three weeks (FIG. 17A) or for two weeks (FIG. 17C). All treatments were stopped at day 33 (FIG. 17A) or at day 26 (FIG. 17C), respectively. A day after the last treatment, tumours were excised from the animals and their weights were measured. […] In FIG. 17C, antitumour activities were estimated by the inhibition of tumour volume, which was measured with calipers. Each point represents mean tumour volume calculated from 10 animals per experimental group.

Assay [6] concerns Human taxol-resistant promyelocytic leukaemia cells (HL-60). In words: HL-60 taxol-resistant promyelocytic leukaemia xenograft in SCID mice. In kind it is in vivo. The protocol: Human taxol-resistant promyelocytic leukaemia cells (HL-60) (7×10^6 cells in 100 μl of PBS) were injected into the right flank of 6-7 weeks old female SCID mice. After the size of tumour reached an approximate volume of 100 mm^3, 10 days post tumour cell injection, SEQ ID NO:1 was administered by bolus infusion into the tail vein every other day at 10 mg/kg. Control animals received saline alone for the same period. The anti-tumour effect of SEQ ID NO:1 was further compared to that of taxol. Taxol was administered i.p. once a week at a dose of 10 mg/kg. Anti-tumour activity was estimated by the inhibition of tumour volume, which was measured with caliper. Each point represents mean tumour volume calculated from 10 animals per experimental group. In addition animals were sacrificed and tumour weights taken at the end of the study.

Assay [7] deals with BxPC-3 human pancreatic carcinoma cells. Kind of assay: BxPC-3 gemcitabine resistant pancreatic carcinoma xenograft in CD-1 nude mice. In kind it is in vivo. Here is the method: BxPC-3 human pancreatic carcinoma cells (3×10^6 cells in 100 μl of PBS) were subcutaneously injected into the right flank of 6-7 weeks old female CD-1 nude mice. BxPC-3 is a gemcitabine resistant call line. After the size of tumour reached an approximate volume of 100 mm^3, 21 days post tumour cell injection, SEQ ID NO:1 was administered by bolus infusion into the tail vein every other day at 10 mg/kg 17 times. Control animals received saline alone for the same period. Antitumour effect of SEQ ID NO:1 was further compared to that of Gemcitabine. Gemcitabine was administered intravenously every three days at a dose of 100 mg/kg. Antitumour activities were estimated by the inhibition of tumour volume, which was measured with caliper. Each point represents mean tumour volume calculated from 10 animals per experimental group. […] As expected, treatment with Gemcitabine during the same period was ineffective against Gemcitabine-resistant tumour (FIGS. 19A & B).

Another assay deals with renal cell carcinoma. To be noted: patients with renal cell carcinoma; cited from earlier work.
Where [8] appears, read: study with Taxol and Cisplatin alone.

As for `N.N.[Cl][Pt][Cl]` [Cisplatin, reference compound], in assay [1], the “tumour volume data as percentage of saline control” value was 67%. Further, the “Tumour weight as % of saline control” value is listed as 56% in assay [2] (CB-17/SCID), 69% in assay [2] (SCID), 63% in assay [3] and 78% in assay [4] (setting [8]). Moreover, in assay [4] (Example 13.3, SEQ ID NO:1 10 mg/kg 9 times, Cisplatin 4 mg/kg, Taxol 10 mg/kg i.v. weekly for three weeks), the “antitumour effect (tumour volume)” value is listed as “ineffective”.
Take `CC(=O)O[C@H]1C(=O)[C@@]2(C)[C@H]([C@H](OC(=O)c3ccccc3)[C@]3(O)C[C@H](OC(=O)[C@H](O)[C@@H](NC(=O)c4ccccc4)c4ccccc4)C(C)=C1C3(C)C)[C@]1(OC(C)=O)CO[C@@H]1C[C@@H]2O` [Taxol, Paclitaxel, reference compound]: the “tumour volume data as percentage of saline control” value in assay [1] was found to be 49%. The “Tumour weight as % of saline control” value in assay [5] was 58%; in assay [2] (SCID) it was 109%; in assay [6] (HL-60 (leukemia), Taxol resistance, SCID) it was 119%; in assay [4] (Taxol combination study, first of two value columns), 26%; in assay [4] (Taxol combination study, second of two value columns) it was 61%; in assay [4] (setting [8]), 32%. In assay [2] (Example 13.5, SEQ ID NO:1 10 mg/kg 15 times, Cisplatin 4 mg/kg, Taxol 20 mg/kg i.v. weekly for four weeks), the “antitumour effect (tumour volume)” value is “ineffective”. Also, in assay [6] (SEQ ID NO:1 10 mg/kg every other day, Taxol 10 mg/kg i.p. weekly), the “anti-tumour effect (tumour volume, tumour weight)” value is “no effect on tumour growth or weight”.
`Nc1ccn([C@@H]2O[C@H](CO)[C@@H](O)C2(F)F)c(=O)n1` [Gemcitabine, reference compound]: the “Tumour weight as % of saline control” value in assay [7] (BxPC-3 (pancreatic), Gemcitabine resistance, CD-1) turned out to be 83%. In assay [7] (SEQ ID NO:1 10 mg/kg 17 times i.v., Gemcitabine 100 mg/kg i.v. every three days), the “antitumour effect (tumour volume)” value is “ineffective”.
Take `CC(=O)O[C@]1(C(C)=O)CC[C@H]2[C@@H]3C[C@H](C)C4=CC(=O)CC[C@]4(C)[C@H]3CC[C@@]21C` [MPA, medroxyprogesterone acetate, reference compound]: in the assay with renal cell carcinoma, the 1-year survival is on record as 31%.
